Consider 51 compounds from US9249131B2, “Modulators of ATP-binding cassette transporters” (Vertex Pharmaceuticals Incorporated, priority 2003, dated 2016).

The experiment deals with T1, ΔF508-CFTR (Homo sapiens, UniProt P13569, DEL508-508).
T1 construct: expressed in transfected cells; host or cells: NIH3T3 mouse fibroblasts stably expressing ΔF508-CFTR for the optical, whole-cell and single-channel assays; Fisher rat epithelial (FRT) cells for Ussing chamber follow-up
In words: Assays for ΔF508-CFTR correction and potentiator properties (membrane potential optical and electrophysiological methods). Format: cell-based. To be noted: CFTR modulation; for % Activity: % Efficacy; for EC50: tested using the above methods. The method in brief: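 NIH3T3 mouse fibroblasts stably expressing ΔF508-CFTR were used, with membrane potential read by DiSBAC2(3)/CC2-DMPE FRET on VIPR. Correctors: 16 h compound exposure at 37 °C, then activation with forskolin plus genistein in Cl⁻-free medium. Potentiators: cells held 24 h at 27 °C, compound added in Cl⁻-free medium, 2-10 μM forskolin 22 s later (final Cl⁻ 28 mM).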

T1 sequence (P13569 with tags, fused parts or gaps DEL508-508): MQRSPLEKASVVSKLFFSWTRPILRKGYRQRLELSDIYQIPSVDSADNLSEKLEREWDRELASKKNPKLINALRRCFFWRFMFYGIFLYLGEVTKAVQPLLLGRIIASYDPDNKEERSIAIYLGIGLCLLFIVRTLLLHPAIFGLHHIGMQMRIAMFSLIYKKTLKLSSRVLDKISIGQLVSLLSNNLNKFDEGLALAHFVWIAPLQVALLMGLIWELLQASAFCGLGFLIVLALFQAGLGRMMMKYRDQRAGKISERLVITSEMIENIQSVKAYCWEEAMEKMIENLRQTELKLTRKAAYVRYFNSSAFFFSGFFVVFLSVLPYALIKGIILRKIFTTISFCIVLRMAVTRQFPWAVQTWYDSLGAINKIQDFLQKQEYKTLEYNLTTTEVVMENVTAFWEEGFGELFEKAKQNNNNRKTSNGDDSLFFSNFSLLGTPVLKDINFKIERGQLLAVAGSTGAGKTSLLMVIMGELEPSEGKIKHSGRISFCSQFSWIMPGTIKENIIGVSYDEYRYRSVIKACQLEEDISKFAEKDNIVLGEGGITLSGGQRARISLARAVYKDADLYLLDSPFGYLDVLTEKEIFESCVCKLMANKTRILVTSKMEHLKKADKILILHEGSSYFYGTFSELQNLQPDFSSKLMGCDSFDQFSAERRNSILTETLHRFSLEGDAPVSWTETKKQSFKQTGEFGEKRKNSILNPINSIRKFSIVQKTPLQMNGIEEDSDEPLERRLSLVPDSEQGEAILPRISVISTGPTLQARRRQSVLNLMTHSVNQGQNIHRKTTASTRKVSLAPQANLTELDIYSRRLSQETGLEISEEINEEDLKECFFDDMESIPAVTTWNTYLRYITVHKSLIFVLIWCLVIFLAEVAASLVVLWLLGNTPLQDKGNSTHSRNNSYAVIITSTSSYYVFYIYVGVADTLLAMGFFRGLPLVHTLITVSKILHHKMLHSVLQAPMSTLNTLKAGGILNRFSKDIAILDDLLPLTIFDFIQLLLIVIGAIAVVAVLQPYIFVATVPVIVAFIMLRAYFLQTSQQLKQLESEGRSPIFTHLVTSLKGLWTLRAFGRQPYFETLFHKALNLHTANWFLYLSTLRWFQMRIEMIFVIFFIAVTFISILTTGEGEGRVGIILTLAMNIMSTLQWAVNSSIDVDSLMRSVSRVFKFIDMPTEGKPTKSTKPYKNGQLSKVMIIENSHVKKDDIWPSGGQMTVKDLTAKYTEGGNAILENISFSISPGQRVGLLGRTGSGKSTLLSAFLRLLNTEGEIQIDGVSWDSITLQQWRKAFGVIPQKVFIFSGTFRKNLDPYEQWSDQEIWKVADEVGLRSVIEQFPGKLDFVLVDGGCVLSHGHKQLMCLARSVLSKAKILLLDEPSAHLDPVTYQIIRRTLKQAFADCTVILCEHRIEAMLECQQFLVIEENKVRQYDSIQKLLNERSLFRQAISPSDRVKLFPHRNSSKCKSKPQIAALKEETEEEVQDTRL

In the case of `O=C(Nc1nc(-c2ccccc2)c(-c2ccccc2)s1)c1ccccc1Cl` [compound 104], the “% Activity” value was “++ (“++” means between 25% to 100%)” and the EC50 – broadly, the concentration at which the effect is half-maximal – was less than 10 µM.
The like results for `COc1cccc(C(=O)Nc2nc(-c3ccccc3)c(-c3ccccc3)s2)c1` [compound 105] were, in that order, “+++ (“+++” means >100%)” and less than 10 µM.
As to `O=C(Nc1nc(-c2ccccc2)c(-c2ccccc2)s1)c1cccc(Cl)c1` [compound 106], the “% Activity” value is “++ (“++” means between 25% to 100%)” and the EC50 is less than 10 µM.
The like results for `O=C(Cc1ccccc1)Nc1nc(-c2ccccc2)c(-c2ccccc2)s1` [compound 107] were, in that order, “+++ (“+++” means >100%)” and less than 10 µM.
As for `CCCC(=O)Nc1nc(-c2ccccc2)c(-c2ccccc2)s1` [compound 108], the “% Activity” value was “++ (“++” means between 25% to 100%)” and the EC50 is less than 10 µM.
With `CC(C)C(=O)Nc1nc(-c2ccccc2)c(-c2ccccc2)s1` [compound 109], the “% Activity” value is recorded as “++ (“++” means between 25% to 100%)” and the concentration giving a half-maximal response (EC50) was less than 10 µM.
Take `CC(C)CC(=O)Nc1nc(-c2ccccc2)c(-c2ccccc2)s1` [compound 110]: the “% Activity” value was “+++ (“+++” means >100%)” and the EC50 was less than 10 µM.
In the case of `O=C(Nc1nc(-c2ccccc2)c(-c2ccccc2)s1)C1CC1` [compound 111], the “% Activity” value is “+++ (“+++” means >100%)” and the EC50 is less than 10 µM.
On to `CC(C)(C)C(=O)Nc1nc(-c2ccccc2)c(-c2ccccc2)s1` [compound 112], for which the “% Activity” value was “++ (“++” means between 25% to 100%)” and the EC50 is less than 10 µM.
As to `O=C(Nc1nc(-c2ccccc2)c(-c2ccccc2)s1)C1CCCC1` [compound 113], the “% Activity” value is on record as “++ (“++” means between 25% to 100%)” and the concentration giving a half-maximal response (EC50) was less than 10 µM.
As to `O=C(Nc1nc(-c2ccccc2)c(-c2ccccc2)s1)C1CCCCC1` [compound 114], the “% Activity” value is recorded as “++ (“++” means between 25% to 100%)” and the concentration for a half-maximal effect (EC50) was less than 10 µM.
The like results for `O=C(Nc1nc(-c2ccccc2)c(-c2ccccc2)s1)C1CCCO1` (stereo not drawn) [compound 115] were, in that order, “+++ (“+++” means >100%)” and less than 10 µM.
Take `O=C(Nc1nc(-c2ccccc2)c(-c2ccccc2)s1)C1CCOC1` (stereo not drawn) [compound 116]: the “% Activity” value is recorded as “++ (“++” means between 25% to 100%)” and the concentration for a half-maximal effect (EC50) is less than 10 µM.
Take `O=C(Nc1ncc(Cc2ccc(Cl)cc2)s1)C(c1ccccc1)C1CCCCC1` (stereo not drawn) [compound 117]: the “% Activity” value is recorded as “+++ (“+++” means >100%)” and the concentration for a half-maximal effect (EC50) was less than 10 µM.
Regarding `O=C(Nc1ncc(Cc2ccc(Cl)cc2)s1)C(c1ccc(Cl)cc1)c1ccc(Cl)cc1` [compound 118], the “% Activity” value is “++ (“++” means between 25% to 100%)” and the concentration giving a half-maximal response (EC50) is less than 10 µM.
With `CC(C(=O)Nc1ncc(Cc2ccc(Cl)cc2)s1)c1ccccc1` (stereo not drawn) [compound 119], the “% Activity” value was “+++ (“+++” means >100%)” and the EC50 is less than 10 µM.
Regarding `CCC(C(=O)Nc1ncc(Cc2ccc(Cl)cc2)s1)c1ccccc1` (stereo not drawn) [compound 120], the “% Activity” value is given as “++ (“++” means between 25% to 100%)” and the EC50 is less than 10 µM.
Regarding `CCC(C)C(C(=O)Nc1ncc(Cc2ccc(Cl)cc2)s1)c1ccccc1` (stereo not drawn) [compound 121], the “% Activity” value is “+++ (“+++” means >100%)” and the half-maximal effective concentration (EC50) was less than 10 µM.
On the same counts, the results for `O=C(Nc1ncc(Cc2ccc(Cl)cc2)s1)C(c1ccccc1)C1CCCC1` (stereo not drawn) [compound 122] are “+++ (“+++” means >100%)” and less than 10 µM.
In the case of `CC(C)C(C(=O)Nc1ncc(Cc2ccc(Cl)cc2)s1)c1ccccc1` (stereo not drawn) [compound 123], the “% Activity” value was “+++ (“+++” means >100%)” and the EC50 was less than 10 µM.
In the case of `O=C(Nc1ncc(Cc2cccc(Cl)c2)s1)C(c1ccccc1)c1ccccc1` [compound 124], the “% Activity” value is recorded as “++ (“++” means between 25% to 100%)” and the EC50 is less than 10 µM.
With `O=C(Nc1ncc(Cc2cccc(Cl)c2)s1)C(c1ccc(Cl)cc1)c1ccc(Cl)cc1` [compound 125], the “% Activity” value is given as “++ (“++” means between 25% to 100%)” and the EC50 is less than 10 µM.
For the compound `O=C(Nc1ncc(Cc2cccc(Cl)c2)s1)C1Cc2ccccc21` (stereo not drawn) [compound 126], the “% Activity” value is given as “++ (“++” means between 25% to 100%)” and the 50% effective concentration (EC50) lay in the range of 25 to 60 µM.
In the case of `CC(C(=O)Nc1ncc(Cc2cccc(Cl)c2)s1)c1ccccc1` (stereo not drawn) [compound 127], the “% Activity” value is on record as “++ (“++” means between 25% to 100%)” and the concentration giving a half-maximal response (EC50) is less than 10 µM.
On to `CCC(C(=O)Nc1ncc(Cc2cccc(Cl)c2)s1)c1ccccc1` (stereo not drawn) [compound 128], for which the “% Activity” value is “+++ (“+++” means >100%)” and the EC50 is less than 10 µM.
For `CCC(C)C(C(=O)Nc1ncc(Cc2cccc(Cl)c2)s1)c1ccccc1` (stereo not drawn) [compound 129], the “% Activity” value was “++ (“++” means between 25% to 100%)” and the concentration giving a half-maximal response (EC50) was less than 10 µM.
Regarding `CC(C)C(C(=O)Nc1ncc(Cc2cccc(Cl)c2)s1)c1ccccc1` (stereo not drawn) [compound 130], the “% Activity” value is on record as “+++ (“+++” means >100%)” and the EC50 is less than 10 µM.
For `O=C(Nc1ncc(Cc2cccc(Cl)c2)s1)C1c2ccccc2Oc2ccccc21` [compound 131], the “% Activity” value is “+++ (“+++” means >100%)” and the EC50 is less than 10 µM.
With `COc1ccccc1Cc1cnc(NC(=O)C(c2ccccc2)C2CCCCC2)s1` (stereo not drawn) [compound 132], the “% Activity” value is on record as “++ (“++” means between 25% to 100%)” and the EC50 is less than 10 µM.
For `COc1ccccc1Cc1cnc(NC(=O)C2c3ccccc3-c3ccccc32)s1` [compound 133], the “% Activity” value is recorded as “++ (“++” means between 25% to 100%)” and the 50% effective concentration (EC50) is less than 10 µM.
On the same counts, the results for `COc1ccccc1Cc1cnc(NC(=O)C(c2ccc(Cl)cc2)c2ccc(Cl)cc2)s1` [compound 134] are “++ (“++” means between 25% to 100%)” and less than 10 µM.
Take `COc1ccccc1Cc1cnc(NC(=O)C(C)c2ccccc2)s1` (stereo not drawn) [compound 135]: the “% Activity” value is given as “++ (“++” means between 25% to 100%)” and the EC50 was less than 10 µM.
On to `CCC(C(=O)Nc1ncc(Cc2ccccc2OC)s1)c1ccccc1` (stereo not drawn) [compound 136], for which the “% Activity” value is on record as “++ (“++” means between 25% to 100%)” and the concentration for a half-maximal effect (EC50) was less than 10 µM.
Consider `CCC(C)C(C(=O)Nc1ncc(Cc2ccccc2OC)s1)c1ccccc1` (stereo not drawn) [compound 137], for which the “% Activity” value is on record as “++ (“++” means between 25% to 100%)” and the EC50 was less than 10 µM.
Regarding `COc1ccccc1Cc1cnc(NC(=O)C(c2ccccc2)C(C)C)s1` (stereo not drawn) [compound 138], the “% Activity” value is recorded as “++ (“++” means between 25% to 100%)” and the EC50 is less than 10 µM.
The like results for `O=C(Nc1ncc(Cc2ccccc2)s1)C(c1ccccc1)C1CCCCC1` (stereo not drawn) [compound 139] were, in that order, “++ (“++” means between 25% to 100%)” and less than 10 µM.
The like results for `COc1ccccc1Cc1cnc(NC(=O)C2c3ccccc3Oc3ccccc32)s1` [compound 140] were, in that order, “++ (“++” means between 25% to 100%)” and less than 10 µM.
For the compound `O=C(Nc1ncc(Cc2ccccc2)o1)c1ccccc1` [compound 141], the “% Activity” value is “++ (“++” means between 25% to 100%)” and the EC50 was in the range of 10 to 25 µM.
For `O=C(Nc1ncc(Cc2ccc(Cl)cc2)o1)C(c1ccccc1)C1CCCCC1` (stereo not drawn) [compound 142], the “% Activity” value is “++ (“++” means between 25% to 100%)” and the EC50 was less than 10 µM.
With `O=C(Nc1ncc(Cc2ccc(Cl)cc2)o1)C(c1ccccc1)c1ccccc1` [compound 143], the “% Activity” value was “++ (“++” means between 25% to 100%)” and the EC50 is 25 to 60 µM.
In the case of `O=C(Nc1ncc(Cc2ccc(Cl)cc2)o1)C1Cc2ccccc21` (stereo not drawn) [compound 145], the “% Activity” value is “++ (“++” means between 25% to 100%)” and the concentration giving a half-maximal response (EC50) was in the range of 10 to 25 µM.
On to `CCC(C(=O)Nc1ncc(Cc2ccc(Cl)cc2)o1)c1ccccc1` (stereo not drawn) [compound 146], for which the “% Activity” value was “++ (“++” means between 25% to 100%)” and the concentration for a half-maximal effect (EC50) is less than 10 µM.
On to `CCC(C)C(C(=O)Nc1ncc(Cc2ccc(Cl)cc2)o1)c1ccccc1` (stereo not drawn) [compound 147], for which the “% Activity” value is “++ (“++” means between 25% to 100%)” and the EC50 is less than 10 µM.
In the case of `O=C(Nc1ncc(Cc2ccc(Cl)cc2)o1)C(c1ccccc1)C1CCCC1` (stereo not drawn) [compound 148], the “% Activity” value is “++ (“++” means between 25% to 100%)” and the EC50 was less than 10 µM.
On the same counts, the results for `O=C(Cc1ccccc1)Nc1ncc(Cc2ccc(Cl)cc2)o1` [compound 149] are “++ (“++” means between 25% to 100%)” and 10 to 25 µM.
As to `O=C(Nc1ncc(Cc2ccc(Cl)cc2)o1)c1ccccc1` [compound 150], the “% Activity” value is reported as “++ (“++” means between 25% to 100%)” and the half-maximal effective concentration (EC50) was 10 to 25 µM.
As to `O=C(Nc1ncc(Cc2cccc(Cl)c2)o1)C(c1ccccc1)C1CCCCC1` (stereo not drawn) [compound 151], the “% Activity” value is “++ (“++” means between 25% to 100%)” and the concentration for a half-maximal effect (EC50) was less than 10 µM.
The like results for `O=C(Nc1ncc(Cc2cccc(Cl)c2)o1)C1Cc2ccccc21` (stereo not drawn) [compound 152] were, in that order, “++ (“++” means between 25% to 100%)” and 10 to 25 µM.
`CC(C(=O)Nc1ncc(Cc2cccc(Cl)c2)o1)c1ccccc1` (stereo not drawn) [compound 153]: the “% Activity” value is “++ (“++” means between 25% to 100%)” and the EC50 is less than 10 µM.
As for `CCC(C(=O)Nc1ncc(Cc2cccc(Cl)c2)o1)c1ccccc1` (stereo not drawn) [compound 154], the “% Activity” value was “++ (“++” means between 25% to 100%)” and the EC50 was less than 10 µM.
Regarding `CCC(C)C(C(=O)Nc1ncc(Cc2cccc(Cl)c2)o1)c1ccccc1` (stereo not drawn) [compound 155], the “% Activity” value is listed as “++ (“++” means between 25% to 100%)” and the 50% effective concentration (EC50) was less than 10 µM.
